From paper PMC6471177 (Pharmaceutics, 2019)
Read-outs that look alike come from different tables or passages of the source.

Test: Pharmacokinetics of intravenous docetaxel with oral LC478 in rats
Assay type: in vivo, Sprague–Dawley rats
Details: for Vd: read-out: Vss
Procedure: For the intravenous study, rats were divided into three groups according to LC478 doses (0, 30, and 100 mg/kg LC478, respectively). […] To prevent blood clotting, 0.3 mL of 0.9% NaCl-injectable solution containing heparin (20 U/mL) was flushed into each cannula immediately after each blood sampling. […] At this time, each rat was sacrificed by withdrawing blood via a heart puncture, and then the entire gastrointestinal tract (including its contents and feces) was extracted and transferred into a beaker. […] A 100 μL aliquot of the supernatant was collected from each beaker.

[1] = male, Sprague-Dawley, rat, plasma, iv, 20 mg/kg, rats, docetaxel 20 mg/kg intravenous, with 0 mg/kg LC478
[2] = male, Sprague-Dawley, rat, plasma, iv, 20 mg/kg, rats, docetaxel 20 mg/kg intravenous, with 30 mg/kg oral LC478
[3] = male, Sprague-Dawley, rat, plasma, iv, 20 mg/kg, rats, docetaxel 20 mg/kg intravenous, with 100 mg/kg oral LC478
[4] = rats, docetaxel 20 mg/kg intravenous, with 0 mg/kg LC478
[5] = rats, docetaxel 20 mg/kg intravenous, with 30 mg/kg oral LC478
[6] = rats, docetaxel 20 mg/kg intravenous, with 100 mg/kg oral LC478

## CC(=O)O[C@@]12CO[C@@H]1C[C@H](O)[C@@]1(C)C(=O)[C@H](O)C3=C(C)[C@@H](OC(=O)[C@H](O)[C@@H](NC(=O)OC(C)(C)C)c4ccccc4)C[C@@](O)([C@@H](OC(=O)c4ccccc4)[C@H]21)C3(C)C [docetaxel]
Bound over all LC478 groups
  Ae0–24 h: less than 1.56 % of dose
  contribution of CLR to CL: less than 1.56%
Intravenous docetaxel, 100 mg/kg LC478 vs 0 mg/kg LC478
  Ae0–24 h smaller by: 31.1%
Intravenous docetaxel, 100 mg/kg LC478 vs 30 mg/kg LC478
  Ae0–24 h smaller by: 37.2%
Intravenous docetaxel, 100 mg/kg LC478 vs without LC478
  CLR slower by: 40%
Intravenous docetaxel, bound over all LC478 groups
  GI24 h: less than 1.76 % of the intravenous dose
[1]
  AUC(0-inf): 4420 ng·h/mL
  AUC(0-t): 4220 ng·h/mL
  CL renal: 1.13 ± 0.431 mL/min/kg
  MRT: 0.965 h
  clearance: 78.4 ± 13.1 mL/min/kg
  Vd: 4.57 ± 1.03 L/kg
[2]
  AUC(0-inf): 5050 ng·h/mL
  AUC(0-t): 4830 ng·h/mL
  CL renal: 1.06 ± 0.235 mL/min/kg
  MRT: 0.967 h
  clearance: 67.9 ± 11.7 mL/min/kg
  Vd: 4.02 ± 1.36 L/kg
male, Sprague-Dawley, rat, plasma, iv, 20 mg/kg, rats, docetaxel 20 mg/kg intravenous, with 30 mg/kg oral LC478, read-out: Terminal half-life
  half-life: 2.4 ± 0.627 h
[3]
  AUC(0-inf): 4580 ng·h/mL
  AUC(0-t): 4470 ng·h/mL
  CL renal: 0.678 ± 0.253 mL/min/kg
  MRT: 1.12 h
  clearance: 70.4 ± 9.1 mL/min/kg
  Vd: 4.91 ± 1.44 L/kg
[4]
  Ae0–24 h: 1.42 ± 0.418 % of dose
  CLNR: 77.2 ± 12.8 mL/min/kg
  GI24 h: 0.881 ± 0.411 % of dose
[5]
  Ae0–24 h: 1.56 ± 0.129 % of dose
  CLNR: 66.8 ± 11.4 mL/min/kg
  Frel: 114%
  GI24 h: 1.01 ± 0.731 % of dose
[6]
  Ae0–24 h: 0.979 ± 0.365 % of dose
  CLNR: 69.7 ± 9.13 mL/min/kg
  Frel: 104%
  GI24 h: 1.76 ± 0.958 % of dose
